ChEMBL document CHEMBL3596139, “N-Arylalkylbenzo[d]thiazole-2-carboxamides as anti-mycobacterial agents: design, new methods of synthesis and biological evaluation” (Medchemcomm, 2014)
Converted amounts (≈) assume the structure as drawn.

Assays:
[1] = test system: Mycobacterium tuberculosis; test: Antimycobacterial activity against Mycobacterium tuberculosis H37Rv ATCC 27294 after 28 days by two-fold serial dilution method; format: functional; settings: H37Rv ATCC 27294, 672 h
[2] = Cytotoxicity against HEK293T cells assessed as inhibition of cell viability at 50 ug/ml after 72 hrs by MTT assay relative to control; format: cell-based, HEK-293T; settings: human, read-out: INH
[3] = Therapeutic index, ratio of compound cytotoxic activity for HEK293T cells to antimycobacterial activity against Mycobacterium tuberculosis H37Rv ATCC 27294; format: cell-based, HEK-293T; settings: human, read-out: TI

Compound | MIC99 [1] | cytotoxicity at 72 h, 50 ug/ml [2] | selectivity ratio [3]
O=C(NCc1ccccc1)c1nc2ccccc2s1 | 3.12 µg/mL (≈ 11.6 µM) | 41.2% | –
O=C(NCc1ccc2c(c1)OCO2)c1nc2cc(Cl)ccc2s1 | 25 µg/mL (≈ 72.1 µM) | – | –
O=C(NCc1ccccc1F)c1nc2ccccc2s1 | 25 µg/mL (≈ 87.3 µM) | – | –
O=C(NCc1cccc(F)c1)c1nc2ccccc2s1 | 6.25 µg/mL (≈ 21.8 µM) | 44.6% | –
O=C(NCc1ccc(F)cc1)c1nc2ccccc2s1 | 6.25 µg/mL (≈ 21.8 µM) | 50.3% | –
O=C(NCc1ccc(F)cc1F)c1nc2ccccc2s1 | 25 µg/mL (≈ 82.2 µM) | – | –
O=C(NCc1cc(F)ccc1F)c1nc2ccccc2s1 | 6.25 µg/mL (≈ 20.5 µM) | 52.1% | –
O=C(NCc1ccc(F)c(F)c1)c1nc2ccccc2s1 | 25 µg/mL (≈ 82.2 µM) | – | –
O=C(NCc1ccccc1Cl)c1nc2ccccc2s1 | 6.25 µg/mL (≈ 20.6 µM) | 35.6% | –
O=C(NCc1cccc(Cl)c1)c1nc2ccccc2s1 | 50 µg/mL (≈ 165 µM) | – | –
O=C(NCc1ccc(Cl)cc1)c1nc2ccccc2s1 | 50 µg/mL (≈ 165 µM) | – | –
O=C(NCc1ccc(Cl)cc1Cl)c1nc2ccccc2s1 | 50 µg/mL (≈ 148 µM) | – | –
Cc1ccccc1CNC(=O)c1nc2ccccc2s1 | 12.5 µg/mL (≈ 44.3 µM) | 42.6% | –
Cc1ccc(CNC(=O)c2nc3ccccc3s2)cc1 | 50 µg/mL (≈ 177 µM) | – | –
COc1ccc(CNC(=O)c2nc3ccccc3s2)cc1 | 25 µg/mL (≈ 83.8 µM) | – | –
COc1ccccc1CNC(=O)c1nc2ccccc2s1 | 50 µg/mL (≈ 168 µM) | – | –
COc1ccc(CNC(=O)c2nc3ccccc3s2)cc1OC | 12.5 µg/mL (≈ 38.1 µM) | 19.1% | –
COc1ccc(CNC(=O)c2nc3ccccc3s2)c(OC)c1 | 50 µg/mL (≈ 152 µM) | – | –
COc1ccc(CNC(=O)c2nc3ccccc3s2)cc1O | 25 µg/mL (≈ 79.5 µM) | – | –
CC(C)(C)c1ccc(CNC(=O)c2nc3ccccc3s2)cc1 | 50 µg/mL (≈ 154 µM) | – | –
O=C(NCc1ccc(C(F)(F)F)cc1)c1nc2ccccc2s1 | 12.5 µg/mL (≈ 37.2 µM) | 36.7% | –
N#Cc1ccc(CNC(=O)c2nc3ccccc3s2)cc1 | 12.5 µg/mL (≈ 42.6 µM) | 36% | –
O=C(NCc1ccc([N+](=O)[O-])cc1)c1nc2ccccc2s1 | 12.5 µg/mL (≈ 39.9 µM) | 38.1% | –

Compound | MIC99 [1] | cytotoxicity at 72 h, 50 ug/ml [2] | selectivity ratio [3]
O=C(NCc1ccc2c(c1)OCO2)c1nc2ccccc2s1 | 6.25 µg/mL (≈ 20 µM) | 16.1% | –
O=C(NCCc1ccccc1)c1nc2ccccc2s1 | 3.12 µg/mL (≈ 11.1 µM) | 22% | –
Nc1ccc(CCNC(=O)c2nc3ccccc3s2)cc1 | 25 µg/mL (≈ 84.1 µM) | – | –
COc1ccc(CCNC(=O)c2nc3ccccc3s2)cc1OC | 25 µg/mL (≈ 73 µM) | – | –
O=C(NCc1ccccc1)c1nc2cc(Cl)ccc2s1 | 6.25 µg/mL (≈ 20.6 µM) | 40.1% | –
O=C(NCc1ccc(F)cc1)c1nc2cc(Cl)ccc2s1 | 25 µg/mL (≈ 77.9 µM) | – | –
O=C(NCc1cc(F)ccc1F)c1nc2cc(Cl)ccc2s1 | 0.78 µg/mL (≈ 2.3 µM) | 32.2% | > 64
O=C(NCc1ccccc1Cl)c1nc2cc(Cl)ccc2s1 | 12.5 µg/mL (≈ 37.1 µM) | 36% | –
O=C(NCc1cccc(Cl)c1)c1nc2cc(Cl)ccc2s1 | 25 µg/mL (≈ 74.1 µM) | – | –
O=C(NCc1ccc(Cl)cc1)c1nc2cc(Cl)ccc2s1 | 25 µg/mL (≈ 74.1 µM) | – | –
COc1ccccc1CNC(=O)c1nc2cc(Cl)ccc2s1 | 12.5 µg/mL (≈ 37.6 µM) | 38.9% | –
COc1ccc(CNC(=O)c2nc3cc(Cl)ccc3s2)cc1OC | 6.25 µg/mL (≈ 17.2 µM) | 36.1% | –
Nc1ccc(CCNC(=O)c2nc3cc(Cl)ccc3s2)cc1 | 1.56 µg/mL (≈ 4.7 µM) | 25.9% | –
COc1ccc(CCNC(=O)c2nc3cc(Cl)ccc3s2)cc1OC | 12.5 µg/mL (≈ 33.2 µM) | 30.9% | –
O=C(NCc1ccccc1)c1nc2cc(C(F)(F)F)ccc2s1 | 6.25 µg/mL (≈ 18.6 µM) | 40.1% | –
O=C(NCc1ccc(F)cc1)c1nc2cc(C(F)(F)F)ccc2s1 | 12.5 µg/mL (≈ 35.3 µM) | 38.7% | –
Nc1ccc(CCNC(=O)c2nc3cc(C(F)(F)F)ccc3s2)cc1 | 50 µg/mL (≈ 137 µM) | – | –
COc1ccc(CCNC(=O)c2nc3cc(C(F)(F)F)ccc3s2)cc1OC | 25 µg/mL (≈ 60.9 µM) | – | –
CC[C@@H](CO)NCCN[C@@H](CC)CO [ETHAMBUTOL] | 1.56 µg/mL (≈ 7.64 µM) | – | –
NNC(=O)c1ccncc1 [ISONIAZID] | 0.098 µg/mL (≈ 0.715 µM) | – | –
NC(=O)c1cnccn1 [PYRAZINAMIDE] | 6.25 µg/mL (≈ 50.8 µM) | – | –
CO[C@H]1/C=C/O[C@@]2(C)Oc3c(C)c(O)c4c(O)c(c(/C=N/N5CCN(C)CC5)c(O)c4c3C2=O)NC(=O)/C(C)=C\C=C\[C@H](C)[C@H](O)[C@@H](C)[C@@H](O)[C@@H](C)[C@H](OC(C)=O)[C@@H]1C [RIFAMPIN] | 0.197 µg/mL (≈ 0.239 µM) | – | –
